Source: patent US8492384B2 (Korea Institute of Science and Technology, priority 2008, dated 2013)

Assays:
Assay type in all cases: cell-based
[1] = target: T1, α1G T-type calcium channels (Homo sapiens, UniProt O43497); assay: T-type calcium channel activity using the FDSS6000 (HTS, Fluo-3/AM, KCl-induced intracellular calcium change); details: percent inhibition at 10 μM, HEK293 cells stably expressing α1G T-type calcium channels and Kir2.1, KCl 75 mM activation; for inhibition at 10 µM: read-out: FDSS (%, 10 μM)
T1 construct: host or cells: HEK293
T1 sequence (O43497 whole entry): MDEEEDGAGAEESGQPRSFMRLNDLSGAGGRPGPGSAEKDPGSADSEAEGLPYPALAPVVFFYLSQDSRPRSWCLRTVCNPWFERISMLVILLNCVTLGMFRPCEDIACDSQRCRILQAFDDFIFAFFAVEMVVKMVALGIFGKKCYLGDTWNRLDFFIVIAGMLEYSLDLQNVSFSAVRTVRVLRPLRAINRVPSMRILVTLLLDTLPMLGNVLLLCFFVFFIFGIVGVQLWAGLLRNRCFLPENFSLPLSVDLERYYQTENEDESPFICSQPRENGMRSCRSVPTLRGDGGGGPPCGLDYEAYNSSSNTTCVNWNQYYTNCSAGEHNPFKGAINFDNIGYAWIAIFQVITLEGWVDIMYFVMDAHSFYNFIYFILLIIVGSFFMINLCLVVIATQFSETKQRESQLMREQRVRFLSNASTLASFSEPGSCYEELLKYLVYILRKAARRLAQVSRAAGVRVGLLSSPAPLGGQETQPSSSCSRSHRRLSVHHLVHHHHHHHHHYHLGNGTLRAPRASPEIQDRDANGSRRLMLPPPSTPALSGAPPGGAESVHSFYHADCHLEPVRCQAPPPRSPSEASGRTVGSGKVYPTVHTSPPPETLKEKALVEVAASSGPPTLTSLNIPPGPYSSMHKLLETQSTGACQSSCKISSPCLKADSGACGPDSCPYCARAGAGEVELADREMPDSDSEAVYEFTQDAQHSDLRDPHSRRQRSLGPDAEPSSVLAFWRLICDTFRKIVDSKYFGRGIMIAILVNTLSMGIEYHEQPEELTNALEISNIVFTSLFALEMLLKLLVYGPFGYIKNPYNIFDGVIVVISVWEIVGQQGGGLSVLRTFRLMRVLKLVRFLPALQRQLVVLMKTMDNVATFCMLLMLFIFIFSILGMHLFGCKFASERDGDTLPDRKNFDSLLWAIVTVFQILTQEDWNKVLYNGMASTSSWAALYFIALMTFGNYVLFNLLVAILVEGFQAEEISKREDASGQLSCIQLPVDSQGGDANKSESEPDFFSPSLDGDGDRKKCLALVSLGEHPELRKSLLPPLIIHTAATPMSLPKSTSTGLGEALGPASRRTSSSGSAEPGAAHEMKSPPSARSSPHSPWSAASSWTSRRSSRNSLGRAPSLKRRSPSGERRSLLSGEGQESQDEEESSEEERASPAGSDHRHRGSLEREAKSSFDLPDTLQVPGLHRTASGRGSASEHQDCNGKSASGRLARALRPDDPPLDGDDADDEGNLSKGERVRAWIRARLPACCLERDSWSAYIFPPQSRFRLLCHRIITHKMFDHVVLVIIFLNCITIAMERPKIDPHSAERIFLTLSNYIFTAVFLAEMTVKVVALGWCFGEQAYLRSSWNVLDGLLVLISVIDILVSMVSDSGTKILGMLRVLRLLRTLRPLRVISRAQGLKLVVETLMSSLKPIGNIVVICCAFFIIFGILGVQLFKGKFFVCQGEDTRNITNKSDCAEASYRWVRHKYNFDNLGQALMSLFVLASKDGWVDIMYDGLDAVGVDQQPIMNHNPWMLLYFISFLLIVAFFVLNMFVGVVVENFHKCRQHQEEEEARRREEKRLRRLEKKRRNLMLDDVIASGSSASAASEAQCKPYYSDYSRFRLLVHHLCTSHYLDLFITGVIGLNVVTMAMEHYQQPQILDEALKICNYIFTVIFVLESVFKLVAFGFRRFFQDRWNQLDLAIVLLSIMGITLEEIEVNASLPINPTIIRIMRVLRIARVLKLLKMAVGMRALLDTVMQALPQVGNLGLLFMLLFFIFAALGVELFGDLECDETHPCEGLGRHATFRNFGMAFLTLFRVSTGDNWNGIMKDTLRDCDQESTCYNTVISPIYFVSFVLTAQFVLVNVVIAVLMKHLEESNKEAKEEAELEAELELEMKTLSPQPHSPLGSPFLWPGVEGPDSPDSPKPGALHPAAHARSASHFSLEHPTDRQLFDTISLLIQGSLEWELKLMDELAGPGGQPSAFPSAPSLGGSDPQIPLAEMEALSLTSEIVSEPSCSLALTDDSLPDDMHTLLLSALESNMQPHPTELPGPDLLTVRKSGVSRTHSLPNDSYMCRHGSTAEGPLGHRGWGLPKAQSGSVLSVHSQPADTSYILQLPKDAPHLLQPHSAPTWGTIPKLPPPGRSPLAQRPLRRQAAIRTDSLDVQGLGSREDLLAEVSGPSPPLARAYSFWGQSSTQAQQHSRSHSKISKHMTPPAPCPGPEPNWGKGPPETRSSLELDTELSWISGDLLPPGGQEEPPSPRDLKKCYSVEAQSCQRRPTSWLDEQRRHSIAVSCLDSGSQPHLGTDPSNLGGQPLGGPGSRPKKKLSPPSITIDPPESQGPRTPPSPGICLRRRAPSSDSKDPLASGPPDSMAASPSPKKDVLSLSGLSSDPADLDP
Experimental: (§1) The novel compounds of the present invention presented as the formula 1 were tested for their antagonistic activities against T-type calcium channels using the methods described below. More specifically, the synthesized compounds were screened as follows: First, as a primary screening, the compounds having 40% or higher of antagonistic activities against T-type calcium channels were selected using the FDSS6000, a high throughput screening (HTS) device. Then, as a secondary screening, the IC50 (effective inhibitory concentration) values were obtained using the electrophysiological methods.
1) Methods for the Measurements of T-Type Calcium Channel Activity Using the FDSS6000
12 to 24 hours prior to the FDSS-based HTS assay, HEK293 cells stably expressing both α1G T-type calcium channels and Kir2.1 channels (α1G cell line: KCTC 10519BP, KRIBB (Korea Research Institute of Bioscience and Biotechnology) (GENE BANK) were seeded onto the 96-well plate coated with poly-L-lysine (0.05 mg/mL) at a density of 4×10^4 cells/well using a cell distributor (Titertek, USA). On the following day, the cells attached onto the 96-well plate were washed three times with a HEPES-buffered solution (150 mM NaCl, 5 mM KCl, 1 mM MgCl2, 2 mM CaCl2, 10 mM HEPES, 10 mM glucose, and pH 7.4) using an automatic 96-well plate washer (BioTek, USA), and then labeled with a fluorescent calcium indicator dye, Fluo-3/AM (5 μM) and 0.001% Pluronic F-127 in a HEPES-buffered solution at room temperature for 1 hour and then washed again with a HEPES-buffered solution twice. 10 minutes prior to the FDSS6000 measurements, the cells was washed with a HEPES-buffered solution containing 10 mM CaCl2 once and the final volume was adjusted.
In addition to the 96-well plates with cells, the two drug plates were prepared: one containing KCl (final concentration of 75 mM) for the activation of T-type calcium channels, and the other containing testing compounds (blocking agents of T-type calcium channels). Since most cell-based HTS devices are provided with a liquid application system for drug injection but not with a liquid absorption system, the KCl solution and the blocking agents for screening were prepared at concentrations five times higher than the final concentrations in the 10 mM CaCl2 HEPES-buffered solution, and then diluted in the cell plate, and the activities were measured. The specific method of the FDSS6000 measurements is as follows: For the FDSS6000 measurements, after the 20-sec baseline recordings, cells were preincubated with drugs for 75 seconds and the change in intracellular calcium concentration induced by KCl was measured. The percent inhibition by a test compound was calculated as integrated values of 340/380 fluorescent ratio of untreated and drug-treated cells. The control drug was 10 μM of Mibefradil®.
In details, cells were selectively exposed to 340 nm and 380 nm light excited by 4 xenon lamps installed in FDSS6000 using a computer-controlled filter wheel. The emitter fluorescence light through a 515 nm long-pass filter was passed by a freezing digital CCD camera mounted on the device. Data were collected every 1.23 seconds, and an average value of 340/380 fluorescent ratio for each well was obtained using a digital fluorescent analyzer. Data acquisition and analysis were performed using a program provided by Hamamatsu Photonics.

[2] = target: T1, α1G T-type calcium channels; assay: T-type calcium channel activity using electrophysiological whole-cell patch-clamp technique; details: percent inhibition of inward peak currents, HEK293 cells expressing α1G, head prints 100 μM
[3] = target: T1, α1G T-type calcium channels; assay: as above; details: HEK293 cells expressing α1G T-type calcium channels
Experimental: as §1
2) Methods for the Measurements of T-Type Calcium Channel Activity Using an Electrophysiological Whole-Cell Patch-Clamp Technique
HEK293 cells stably expressing T-type calcium channels were cultured in DMEM (Dulbecco's modified Eagle's medium) containing 10% (v/v) fetal bovine serum and 1% penicillin/streptomycin (v/v) in humidified 5% CO2 at 36.5° C. Cells expressing α1GT-type calcium channels were selected using G-418 (0.5 mg/mL) in the culture medium. The culture medium was replaced with a fresh one every 3-4 days, and cells were subcultured every week.
Cells were seeded onto the coverglass coated with poly-L-lysine (0.5 mg/mL) for the measurements of T-type calcium channel activity 2-7 days prior to the recordings. Whole-cell recordings of T-type calcium channel currents were performed using an EPC-9 patch clamp amplifier (HEKA, Germany). Whole-cell currents were recorded using micropipettes with resistance of 3-4 MΩ with the pipette (intracellular) solution containing (in mM): 130 KCl, 11 EGTA, 5 Mg-ATP, and 10 HEPES, pH to 7.4 and with the bath (extracellular) solution containing (in mM): 140 NaCl, 2 CaCl2, and 10 HEPES, pH to 7.4. The inward currents of T-type calcium channels were evoked by the test pulses of −30 mV for 50 ms at a holding potential of −100 mV every 10 seconds.
Each compound was dissolved in dimethylsulfoxide (DMSO) as 10 mM stock solutions and diluted in the bath solution to 10 μM (containing 0.1% DMSO). […] More specifically, each compound was perfused to the bath for about 30-60 seconds, and the inhibition of the inward peak currents by a test compound was calculated as a percent inhibition from which the IC50 values were determined.

| Compound | inhibition at 10 µM [1] [%] | inhibition at 100 µM [2] [%] | IC50 [3] [µM] | FDSS (%, 10 μM) [1] [%] | HEK293 (%, 100 μM) [2] [%] |
| --- | --- | --- | --- | --- | --- |
| O=C(CCn1cnc(-c2ccccc2)c1)N1CCN(c2ccccc2F)CC1 [Compound No. 20, 1-N-[4-(2-fluorophenyl)piperazin-1-yl]carbonylethyl-4-phenylimidazole] | 45.2 | 22.9 ± 1.4 | 22.3 ± 1.46 |  |  |
| Cc1cccc(N2CCN(C(=O)CCn3cnc(-c4ccccc4)c3)CC2)c1C [Compound No. 3, 1-N-[4-(2,3-dimethylphenyl)piperazin-1-yl]carbonylethyl-4-phenylimidazole] | 55.5 | 64.7 ± 2.2 | 4.89 ± 0.44 |  |  |
| O=C(CCn1cnc(-c2ccccc2)c1)N1CCN(Cc2ccc(Cl)cc2)CC1 [Compound No. 5, 1-N-[4-(4-chlorobenzyl)piperazin-1-yl]carbonylethyl-4-phenylimidazole] | 64.7 | 86.5 ± 1.8 | 3 ± 0.26 |  |  |
| O=C(CCn1cnc(-c2ccccc2)c1)NCCN1CCN(C(c2ccccc2)c2ccccc2)CC1 [Compound No. 55, 1-N-[2-(4-diphenylmethylpiperazin-1-yl)ethyl]carbamoylethyl-4-phenylimidazole] | 49.6 | 51.9 ± 0.1 | 8.66 ± 0.12 |  |  |
| 1-N-{2-[4-(4-chlorophenyl) (phenyl)methylpiperazin-1-yl]ethyl}carbamoylethyl-2-phenylimidazole [Compound No. 63] |  |  | 2.11 ± 0.11 | 58.64 | 89.1 ± 1.3 |
| O=C(CCn1ccnc1-c1ccccc1)N1CCN(C(c2ccccc2)c2ccccc2)CC1 [Compound No. 13, 1-N-(4-diphenylmethylpiperazin-1-yl)carbonylethyl-2-phenylimidazole] | 54.7 | 71.1 ± 3.3 | 3.67 ± 0.23 |  |  |
| 1-N-[4-(4-chlorophenyl)(phenyl)methylpiperazin-1-yl]carbonylethyl-4-methylimidazole [Compound No. 45] |  |  | 5.46 ± 0.57 | 47.90 | 64.7 ± 2.2 |
| 1-N-{2-[4-(4-chlorophenyl) (phenyl)methylpiperazin-1-yl]ethyl}carbamoylethyl-4-phenylimidazole [Compound No. 64] |  |  | 1.39 ± 0.07 | 60.48 | 95.8 ± 0.7 |
| O=C(CCn1ccnc1-c1ccccc1)NCCN1CCN(C(c2ccccc2)c2ccccc2)CC1 | 60.8 | 29.1 ± 1.7 | 18 ± 0.92 |  |  |
| O=C(CCn1cnc(-c2ccccc2)c1)N1CCN(c2cccc(Cl)c2)CC1 [Compound No. 25, 1-N-[4-(3-chlorophenyl)piperazin-1-yl]carbonylethyl-4-phenylimidazole] | 63.7 | 74.3 ± 1.3 | 4.35 ± 0.14 |  |  |
| O=C(CCn1ccnc1-c1ccccc1)N1CCN(Cc2ccc(Cl)c(Cl)c2)CC1 [Compound No. 18, 1-N-[4-(3,4-dichlorobenzyl)piperazin-1-yl]carbonylethyl-2-phenylimidazole] | 39.3 | 50 ± 0.6 | 9.36 ± 0.65 |  |  |
